{"source": "patent US20050153870A1", "about": "“Medicinal composition for diagnosis, prevention, or therapy of multiple risk factor syndrome” (priority 2002, published 2005)", "test_system": "non-insulin dependent type II diabetes patients", "test": "Clinical test II", "format": "in vivo, human", "conditions": "for Fasting blood sugar: before medication 108.8 ± 15.10; for number of patients with fasting blood sugar level No change or increase / number of patients with reduction rate of fasting blood sugar level 20-10% / number of patients with reduction rate of fasting blood sugar level <10% / number of patients with reduction rate of fasting blood sugar level >20% / number of patients with total serum cholesterol No change or increase / number of patients with total serum cholesterol decreasing rate 20-10% / number of patients with total serum cholesterol decreasing rate <10% / number of patients with total serum cholesterol decreasing rate >20%: 12 weeks", "protocol": "On the other hand, Clinical test II was performed in a group of 79 participants from non-insulin dependent diabetic patients.\n79 non-insulin dependent type II diabetes patients whose blood sugar is well-controlled under dietary therapy (all were mongoloid Japanese) participated in Clinical test II. They were forbidden to use sulfonyl urea and biguanide agent which is a therapeutic agent for type II diabetes, and a fibrate series medicament, nicotinic acid, and probucol which is a serum fat decreasing agent; however use of an antihypertensive agent is not particularly prohibited. They participated on a voluntary basis after they signed informed consent for clinical test participation, which was proposed by a medical institution based on the Helsinki declaration. The participants consisted of 26 males and 53 females. An average age at the sign-up time was 58±9.9 years old (average value±standard deviation), ranging from 37 to 81 years old. The body weight of patients was divided by standard body weight obtained from the standard body-weight table issued by Meiji life Insurance Company. This index was 1.24±0.154 (average value±standard deviation) at the sign-up time, meaning that there are many obese persons. After 12 weeks, the body weight index decreased to 1.18±0.137(average value±standard deviation).\nThe number of patients having normal blood pressure was 58 (of them, 31 patients were taking an antihypertensive agent).", "key": {"[1]": {"conditions": "Normal blood sugar group FBS < 130 mg/dl, 12th week"}, "[2]": {"conditions": "body weight fluctuation: No change or increase (total 29)"}, "[3]": {"conditions": "body weight fluctuation: No change or increase (total 31)"}, "[4]": {"conditions": "body weight fluctuation: Reduction of 3 kg or less (total 24)"}, "[5]": {"conditions": "body weight fluctuation: Reduction of 3 kg or less (total 25)"}, "[6]": {"conditions": "body weight fluctuation: Reduction of 3 kg or more (total 13)"}, "[7]": {"conditions": "body weight fluctuation: Reduction of 3 kg or more (total 18)"}}}
{"smiles": "COc1c(Cl)c(C)c(C=O)c(O)c1C/C=C(C)/C=C/[C@@]1(C)[C@H](C)CCC(=O)[C@@H]1C", "note": "[4-O-methylascochlorin]", "values": [{"measurement": "Fasting blood sugar", "setting": "Normal blood sugar group FBS < 130 mg/dl, 8th week", "value": "109.0 ± 17.34", "unit": "mg/dL"}, {"measurement": "Fasting blood sugar, change vs before medication", "setting": "[1]", "value": "ns (n = 25)"}, {"measurement": "Fasting blood sugar", "setting": "[1]", "value": "106.4 ± 17.80", "unit": "mg/dL"}, {"measurement": "Total serum cholesterol", "setting": "Normal group <220 mg/dl, 4th week, before medication 188.9 ± 21.55", "value": "177.9 ± 31.91", "unit": "mg/dL"}, {"measurement": "Total serum cholesterol, change vs before medication", "setting": "Normal group <220 mg/dl, 4th week, ns. = No significant difference", "value": "ns. (n = 14)"}, {"measurement": "Total serum cholesterol", "setting": "Normal group <220 mg/dl, 8th week, before medication 188.9 ± 21.55", "value": "176.0 ± 36.33", "unit": "mg/dL"}, {"measurement": "Total serum cholesterol, change vs before medication", "setting": "Normal group <220 mg/dl, 8th week, ns. = No significant difference", "value": "ns. (n = 14)"}, {"measurement": "Total serum cholesterol", "setting": "Normal group <220 mg/dl, 12th week, before medication 188.9 ± 21.55", "value": "181.2 ± 32.10", "unit": "mg/dL"}, {"measurement": "Total serum cholesterol, change vs before medication", "setting": "Normal group <220 mg/dl, 12th week, ns. = No significant difference", "value": "ns. (n = 18)"}, {"measurement": "Total serum cholesterol, change vs before medication", "setting": "Super high cholesterol group >300 mg/dl, 4th week", "value": "−20.0% (n = 20)"}, {"measurement": "Total serum cholesterol", "setting": "Super high cholesterol group >300 mg/dl, 4th week, before medication 348.8 ± 56.36", "value": "273.8 ± 29.38", "unit": "mg/dL"}, {"measurement": "Total serum cholesterol, change vs before medication", "setting": "Super high cholesterol group >300 mg/dl, 8th week", "value": "−28.9% (n = 20)"}, {"measurement": "Total serum cholesterol", "setting": "Super high cholesterol group >300 mg/dl, 8th week, before medication 348.8 ± 56.36", "value": "248.5 ± 36.01", "unit": "mg/dL"}, {"measurement": "Total serum cholesterol, change vs before medication", "setting": "Super high cholesterol group >300 mg/dl, 12th week", "value": "−30.0% (n = 21)"}, {"measurement": "Total serum cholesterol", "setting": "Super high cholesterol group >300 mg/dl, 12th week, before medication 348.8 ± 56.36", "value": "244.2 ± 36.59", "unit": "mg/dL"}, {"measurement": "Serum neutral fat", "setting": "abnormal high value group, greater than 120 mg/dl", "value": "significantly decreased"}, {"measurement": "body weight index (body weight divided by standard body weight)", "setting": "after 12 weeks, at the sign-up time 1.24±0.154", "value": "1.18±0.137"}, {"measurement": "number of patients with fasting blood sugar level No change or increase", "setting": "[2]", "value": 11}, {"measurement": "number of patients with reduction rate of fasting blood sugar level 20-10%", "setting": "[2]", "value": 8}, {"measurement": "number of patients with reduction rate of fasting blood sugar level <10%", "setting": "[2]", "value": 7}, {"measurement": "number of patients with reduction rate of fasting blood sugar level >20%", "setting": "[2]", "value": 3}, {"measurement": "number of patients with total serum cholesterol No change or increase", "setting": "[3]", "value": 11}, {"measurement": "number of patients with total serum cholesterol decreasing rate 20-10%", "setting": "[3]", "value": 6}, {"measurement": "number of patients with total serum cholesterol decreasing rate <10%", "setting": "[3]", "value": 5}, {"measurement": "number of patients with total serum cholesterol decreasing rate >20%", "setting": "[3]", "value": 9}, {"measurement": "number of patients with fasting blood sugar level No change or increase", "setting": "[4]", "value": 4}, {"measurement": "number of patients with reduction rate of fasting blood sugar level 20-10%", "setting": "[4]", "value": 8}, {"measurement": "number of patients with reduction rate of fasting blood sugar level <10%", "setting": "[4]", "value": 6}, {"measurement": "number of patients with reduction rate of fasting blood sugar level >20%", "setting": "[4]", "value": 6}, {"measurement": "number of patients with total serum cholesterol No change or increase", "setting": "[5]", "value": 4}, {"measurement": "number of patients with total serum cholesterol decreasing rate 20-10%", "setting": "[5]", "value": 2}, {"measurement": "number of patients with total serum cholesterol decreasing rate <10%", "setting": "[5]", "value": 1}, {"measurement": "number of patients with total serum cholesterol decreasing rate >20%", "setting": "[5]", "value": 18}, {"measurement": "number of patients with total serum cholesterol No change or increase", "setting": "[6]", "value": 1}, {"measurement": "number of patients with total serum cholesterol decreasing rate 20-10%", "setting": "[6]", "value": 0}, {"measurement": "number of patients with total serum cholesterol decreasing rate <10%", "setting": "[6]", "value": 1}, {"measurement": "number of patients with total serum cholesterol decreasing rate >20%", "setting": "[6]", "value": 11}, {"measurement": "number of patients with fasting blood sugar level No change or increase", "setting": "[7]", "value": 3}, {"measurement": "number of patients with reduction rate of fasting blood sugar level 20-10%", "setting": "[7]", "value": 3}, {"measurement": "number of patients with reduction rate of fasting blood sugar level <10%", "setting": "[7]", "value": 4}, {"measurement": "number of patients with reduction rate of fasting blood sugar level >20%", "setting": "[7]", "value": 8}, {"measurement": "Blood pressure, Diastolic period", "setting": "borderline hypertensive patients (n = 14), 4th week, before medication 92 ± 3.0", "value": "86 ± 2.4", "unit": "mmHg"}, {"measurement": "Blood pressure, Systolic period", "setting": "borderline hypertensive patients (n = 14), 4th week, before medication 156 ± 5.4", "value": "149 ± 3.8", "unit": "mmHg"}, {"measurement": "Blood pressure, Diastolic period", "setting": "borderline hypertensive patients (n = 14), 8th week, before medication 92 ± 3.0", "value": "86 ± 3.3", "unit": "mmHg"}, {"measurement": "Blood pressure, Systolic period", "setting": "borderline hypertensive patients (n = 14), 8th week, before medication 156 ± 5.4", "value": "147 ± 3.3", "unit": "mmHg"}, {"measurement": "Blood pressure, Diastolic period", "setting": "borderline hypertensive patients (n = 14), 12th week, before medication 92 ± 3.0", "value": "86 ± 4.1", "unit": "mmHg"}, {"measurement": "Blood pressure, Systolic period", "setting": "borderline hypertensive patients (n = 14), 12th week, before medication 156 ± 5.4", "value": "149 ± 5.5", "unit": "mmHg"}, {"measurement": "blood sugar decreasing effect", "setting": "group having a fasting blood sugar level of greater than 130 mg/dl", "value": "has a significant blood sugar decreasing effect"}, {"measurement": "Serum neutral fat, change vs before medication", "setting": "group with serum neutral fat <120 mg/dl, 4th week", "value": "−9.3% (n = 6)"}, {"measurement": "Serum neutral fat", "setting": "group with serum neutral fat <120 mg/dl, 4th week, before medication 96.2 ± 12.57", "value": "88.5 ± 32.93", "unit": "mg/dL"}, {"measurement": "Serum neutral fat, change vs before medication", "setting": "group with serum neutral fat <120 mg/dl, 8th week", "value": "−15.7% (n = 7)"}, {"measurement": "Serum neutral fat", "setting": "group with serum neutral fat <120 mg/dl, 8th week, before medication 96.2 ± 12.57", "value": "85.7 ± 24.64", "unit": "mg/dL"}, {"measurement": "Serum neutral fat, change vs before medication", "setting": "group with serum neutral fat <120 mg/dl, 12th week", "value": "−5.2% (n = 8)"}, {"measurement": "Serum neutral fat", "setting": "group with serum neutral fat <120 mg/dl, 12th week, before medication 96.2 ± 12.57", "value": "90.3 ± 22.32", "unit": "mg/dL"}, {"measurement": "Serum neutral fat, change vs before medication", "setting": "group with serum neutral fat >120 mg/dl, 4th week", "value": "−15.5% (n = 56)"}, {"measurement": "Serum neutral fat", "setting": "group with serum neutral fat >120 mg/dl, 4th week, before medication 215.7 ± 83.96", "value": "182.6 ± 68.26", "unit": "mg/dL"}, {"measurement": "Serum neutral fat, change vs before medication", "setting": "group with serum neutral fat >120 mg/dl, 8th week", "value": "−23.2% (n = 52)"}, {"measurement": "Serum neutral fat", "setting": "group with serum neutral fat >120 mg/dl, 8th week, before medication 215.7 ± 83.96", "value": "172.7 ± 62.84", "unit": "mg/dL"}, {"measurement": "Serum neutral fat, change vs before medication", "setting": "group with serum neutral fat >120 mg/dl, 12th week", "value": "−25.4% (n = 61)"}, {"measurement": "Serum neutral fat", "setting": "group with serum neutral fat >120 mg/dl, 12th week, before medication 215.7 ± 83.96", "value": "167.8 ± 72.93", "unit": "mg/dL"}, {"measurement": "decrease of systolic pressure", "setting": "hypertension group, 4 weeks after medication, text: no significant difference", "value": 10, "unit": "mmHg"}, {"measurement": "Blood pressure, Diastolic period", "setting": "hypertensive patients (n = 7), 4th week, before medication 97 ± 3.0", "value": "91 ± 3.0", "unit": "mmHg"}, {"measurement": "Blood pressure, Systolic period", "setting": "hypertensive patients (n = 7), 4th week, before medication 175 ± 10.4", "value": "165 ± 15.6", "unit": "mmHg"}, {"measurement": "Blood pressure, Diastolic period", "setting": "hypertensive patients (n = 7), 8th week, before medication 97 ± 3.0", "value": "90 ± 5.1", "unit": "mmHg"}, {"measurement": "Blood pressure, Systolic period", "setting": "hypertensive patients (n = 7), 8th week, before medication 175 ± 10.4", "value": "161 ± 13.9", "unit": "mmHg"}, {"measurement": "Blood pressure, Diastolic period", "setting": "hypertensive patients (n = 7), 12th week, before medication 97 ± 3.0", "value": "89 ± 4.0", "unit": "mmHg"}, {"measurement": "Blood pressure, Systolic period", "setting": "hypertensive patients (n = 7), 12th week, before medication 175 ± 10.4", "value": "158 ± 15.7", "unit": "mmHg"}, {"measurement": "blood sugar decreasing effect", "setting": "normal blood sugar group, fasting blood sugar level of 130 mg/dl or less", "value": "does not have a blood sugar decreasing effect"}, {"measurement": "concentration of serum cholesterol", "setting": "normal group, serum total cholesterol 220 mg/dl or less", "value": "did not change the concentration of serum cholesterol significantly"}, {"measurement": "Serum neutral fat", "setting": "normal value group, 120 mg/dl or less", "value": "only a tendency to decrease"}, {"measurement": "antihypertensive effect", "setting": "patients of type II diabetes complicated with borderline hypertensive", "value": "highly significant antihypertensive effect"}, {"measurement": "total cholesterol values", "setting": "super high value group and high value group", "value": "further significantly decreased"}]}
